Reference: the CheMixHub viscosity set

Assay: xn = mol fraction of the nth substance listed

CCCCCCCCCc1ccccc1 + CCCCCCCCCCCCCCCC
viscosity [mPa·s], 102 kPa
Conditions | x1 = 0.1006 | x1 = 0.2005 | x1 = 0.3005 | x1 = 0.4001 | x1 = 0.5008 | x1 = 0.6006 | x1 = 0.6997 | x1 = 0.7978 | x1 = 0.9003
293.15 K | 3.4 | 3.32 | 3.28 | 3.22 | 3.18 | 3.15 | 3.13 | 3.12 | 3.12
303.15 K | 2.71 | 2.65 | 2.62 | 2.58 | 2.54 | 2.52 | 2.51 | 2.5 | –
313.15 K | 2.2 | 2.16 | 2.13 | 2.11 | 2.09 | 2.06 | 2.05 | 2.05 | 2.05
323.15 K | 1.83 | 1.8 | 1.78 | 1.76 | 1.74 | 1.73 | 1.72 | 1.71 | 1.71

NCc1ccccc1 + O
viscosity [mPa·s]
Conditions | 293.15 K | 303.15 K | 313.15 K | 323.15 K
100 kPa, x1 = 0.1 | – | 2.231 | 1.725 | 1.385
100 kPa, x1 = 0.2 | – | 3.098 | 2.324 | 1.793
100 kPa, x1 = 0.3 | – | 3.387 | 2.512 | 1.956
100 kPa, x1 = 0.4 | – | 3.323 | 2.51 | 1.93
100 kPa, x1 = 0.5 | – | 3.1 | 2.353 | 1.831
100 kPa, x1 = 0.6 | – | 2.669 | 2.064 | 1.648
100 kPa, x1 = 0.7 | – | 2.308 | 1.823 | 1.469
100 kPa, x1 = 0.8 | – | 1.957 | 1.591 | 1.309
100 kPa, x1 = 0.9 | – | 1.681 | 1.396 | 1.182
101 kPa, x1 = 0.1003 | 3.23 | 2.28 | 1.7 | 1.38
101 kPa, x1 = 0.2001 | 4.4 | 3.07 | 2.25 | 1.78
101 kPa, x1 = 0.3 | 4.8 | 3.37 | 2.48 | 1.93
101 kPa, x1 = 0.3997 | 4.63 | 3.3 | 2.46 | 1.91
101 kPa, x1 = 0.5002 | 4.16 | 3.05 | 2.28 | 1.79
101 kPa, x1 = 0.6 | 3.57 | 2.67 | 2.03 | 1.63
101 kPa, x1 = 0.7 | 2.95 | 2.28 | 1.78 | 1.47
101 kPa, x1 = 0.7999 | 2.48 | 1.94 | 1.55 | 1.3
101 kPa, x1 = 0.9 | 2.1 | 1.68 | 1.36 | 1.15

CCCCCCn1cc[n+](C)c1.[Cl-] + CCCCCCn1cc[n+](C)c1.F[B-](F)(F)F
101 kPa
Conditions | viscosity [mPa·s]
303.15 K, x1 = 0.2 | 375.2
303.15 K, x1 = 0.4 | 795.2
308.15 K, x1 = 0.4 | 552.8
313.15 K, x1 = 0.4 | 394.5
318.15 K, x1 = 0.6 | 563.8
323.15 K, x1 = 0.6 | 403.5
323.15 K, x1 = 0.8 | 843.9

CCCCCCCCCCCO + CCCCCCO
viscosity [mPa·s], 101.8 kPa
Conditions | x2 = 0.1577 | x2 = 0.4196 | x2 = 0.6279 | x2 = 0.7981 | x2 = 0.9389
298.15 K | 12.3 | 9.508 | 7.506 | 6.064 | 4.788
308.15 K | 8.55 | 6.727 | 5.412 | 4.436 | 3.545
318.15 K | 6.083 | 4.876 | 3.983 | 3.309 | 2.68

CN1CCNCC1 + O
Conditions | viscosity [mPa·s]
298.15 K, 101 kPa, x1 = 0.1039 | 10.75

NCc1ccccc1 + CCC(C)CO
viscosity [mPa·s], 101.33 kPa
Conditions | x1 = 0.1 | x1 = 0.2 | x1 = 0.3001 | x1 = 0.3999 | x1 = 0.5 | x1 = 0.6 | x1 = 0.6998 | x1 = 0.7989 | x1 = 0.8999
298.15 K | 4.232 | 3.772 | 3.382 | 3.039 | 2.708 | 2.435 | 2.181 | 1.984 | 1.796
303.15 K | 3.472 | 3.103 | 2.773 | 2.478 | 2.243 | 2.048 | 1.849 | 1.691 | 1.572
308.15 K | 2.453 | 2.227 | 2.02 | 1.837 | 1.711 | 1.595 | 1.5 | 1.423 | 1.377

NCc1ccccc1 + CCCC(C)O
viscosity [mPa·s], 101.33 kPa
Conditions | x1 = 0.1 | x1 = 0.2002 | x1 = 0.3001 | x1 = 0.4001 | x1 = 0.4997 | x1 = 0.6 | x1 = 0.6989 | x1 = 0.8 | x1 = 0.8998
298.15 K | 3.179 | 2.906 | 2.676 | 2.466 | 2.274 | 2.11 | 1.976 | 1.854 | 1.75
303.15 K | 2.626 | 2.395 | 2.192 | 2.038 | 1.893 | 1.765 | 1.666 | 1.587 | 1.532
308.15 K | 2.199 | 2.034 | 1.884 | 1.759 | 1.642 | 1.559 | 1.482 | 1.436 | 1.401

S=C=S + CCO
298.15 K, 101 kPa
Conditions | viscosity [mPa·s]
x1 = 0.1096 | 0.9448
x1 = 0.1264 | 0.9535
x1 = 0.1726 | 0.9065
x1 = 0.2241 | 0.8407
x1 = 0.2832 | 0.7621
x1 = 0.4039 | 0.6659
x1 = 0.5848 | 0.5669
x1 = 0.6266 | 0.5466
x1 = 0.7329 | 0.4926

CCCCCCCCCCCO + CCCCCCCO
viscosity [mPa·s]
Conditions | x2 = 0.1397 | x2 = 0.2254 | x2 = 0.388 | x2 = 0.5976 | x2 = 0.7764 | x2 = 0.9311
293.15 K, 101 kPa | – | 14.95 | – | – | – | –
298.15 K, 101.8 kPa | 12.82 | – | 10.49 | 8.805 | 7.365 | 6.099
308.15 K, 101.8 kPa | 8.867 | – | 7.363 | 6.26 | 5.311 | 4.433
318.15 K, 101.8 kPa | 6.299 | – | 5.309 | 4.554 | 3.906 | 3.289

CCOC(=O)CC(C)=O + CCCCO
viscosity [mPa·s], 100 kPa
Conditions | x1 = 0.077 | x1 = 0.1552 | x1 = 0.2375 | x1 = 0.324 | x1 = 0.4191 | x1 = 0.5209 | x1 = 0.6261 | x1 = 0.74 | x1 = 0.861
293.15 K | 2.378 | 2.032 | 1.795 | 1.639 | 1.567 | 1.564 | 1.56 | 1.565 | 1.603
298.15 K | 2.063 | 1.788 | 1.629 | 1.525 | 1.466 | 1.435 | 1.425 | 1.427 | 1.46

S=C=S + ClC(Cl)(Cl)Cl
101 kPa
Conditions | viscosity [mPa·s]
293.15 K, x1 = 0.223 | 0.74
293.15 K, x1 = 0.526 | 0.52
293.15 K, x1 = 0.628 | 0.47
293.15 K, x1 = 0.718 | 0.43
293.15 K, x1 = 0.794 | 0.41
293.15 K, x1 = 0.85 | 0.39
293.15 K, x1 = 0.914 | 0.38
298.15 K, x1 = 0.1 | 0.7919
298.15 K, x1 = 0.2 | 0.7079
298.15 K, x1 = 0.3 | 0.6441
298.15 K, x1 = 0.4 | 0.591
298.15 K, x1 = 0.5 | 0.5423
298.15 K, x1 = 0.6 | 0.4948
298.15 K, x1 = 0.7 | 0.4484
298.15 K, x1 = 0.8 | 0.4061
298.15 K, x1 = 0.9 | 0.3741

FC(F)C(F)(F)F + FCF
viscosity [mPa·s], 101 kPa
Conditions | x1 = 0.247 | x1 = 0.49 | x1 = 0.744
298.15 K | 0.1177 | 0.12 | 0.1269
313.15 K | – | – | 0.1021

CCC(=O)c1ccccc1 + CN(C)c1ccccc1
viscosity [mPa·s], 101 kPa
Conditions | 303.15 K | 308.15 K
x2 = 0.0658 | 1.475 | 1.429
x2 = 0.1256 | 1.445 | 1.398
x2 = 0.1989 | 1.411 | 1.362
x2 = 0.2531 | 1.388 | 1.338
x2 = 0.3331 | 1.358 | 1.305
x2 = 0.4074 | 1.332 | 1.279
x2 = 0.4755 | 1.309 | 1.254
x2 = 0.5265 | 1.293 | 1.237
x2 = 0.6121 | 1.268 | 1.21
x2 = 0.6923 | 1.249 | 1.187
x2 = 0.7625 | 1.229 | 1.167
x2 = 0.8156 | 1.217 | 1.155
x2 = 0.8625 | 1.208 | 1.144

S=C=S + CCOCC
298.15 K, 101 kPa
Conditions | viscosity [mPa·s]
x2 = 0.1341 | 0.338
x2 = 0.3497 | 0.306
x2 = 0.6338 | 0.269

CCC(=O)c1ccccc1 + CCCCOCCO
viscosity [mPa·s], 101 kPa
Conditions | x1 = 0.0996 | x1 = 0.1994 | x1 = 0.2992 | x1 = 0.399 | x1 = 0.499 | x1 = 0.599 | x1 = 0.6992 | x1 = 0.7994 | x1 = 0.8996
303.15 K | 2.333 | 2.24 | 2.148 | 2.056 | 1.964 | 1.873 | 1.782 | 1.692 | 1.602
308.15 K | 2.192 | 2.109 | 2.027 | 1.946 | 1.865 | 1.784 | 1.704 | 1.624 | 1.545
313.15 K | 2.044 | 1.972 | 1.901 | 1.831 | 1.762 | 1.692 | 1.622 | 1.554 | 1.486
318.15 K | 1.863 | 1.805 | 1.749 | 1.694 | 1.639 | 1.584 | 1.53 | 1.476 | 1.424

O=[N+]([O-])c1cccc(O)c1 + CCCCCOC(C)=O
Conditions | viscosity [mPa·s]
298.15 K, 101 kPa, x1 = 0.5 | 1.449

OCCO + CCO
viscosity [mPa·s], 101 kPa
Conditions | x1 = 0.1 | x1 = 0.2 | x1 = 0.3 | x1 = 0.3778 | x1 = 0.4 | x1 = 0.5 | x1 = 0.6 | x1 = 0.7 | x1 = 0.8 | x1 = 0.9
298.15 K | 1.439 | 1.908 | 2.546 | 3.567 | 3.382 | 4.487 | 5.986 | 7.908 | 10.41 | 13.61
308.15 K | 1.05 | 1.524 | 1.991 | 2.688 | 2.581 | 3.346 | 4.363 | 5.645 | 7.295 | 9.374
318.15 K | 0.9744 | 1.253 | 1.604 | 2.13 | 2.053 | 2.598 | 3.325 | 4.216 | 5.306 | 6.652
